Test results reported in the supplement of paper PMC10307832.

Key:
Experiment in all cases: relative viability (nuclei count vs DMSO), 5 days (fraction); higher = more cells survive
[1] = compound: Cc1ccc(NC(=O)c2ccc(CN3CCN(C)CC3)cc2)cc1Nc1nccc(-c2cccnc2)n1 [Imatinib] + COc1cc2c(Oc3ccc(NC(=O)C4(C(=O)Nc5ccc(F)cc5)CC4)cc3F)ccnc2cc1OCCCN1CCOCC1 [Foretinib] (partner 0.25 µM)
Summary of the method: (§1)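 Five library-drug doses in √10 steps were combined with a fixed anchor-drug dose, or a single drug was given alone, by pin tool to lung cancer cell lines in 1536-well plates the day after seeding. Nuclei were stained and counted after 5 days. Relative viability is the nuclei count in treated wells over that in vehicle wells, taken as the median of duplicate plates.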

[2] = compound: Cc1ccc(NC(=O)c2ccc(CN3CCN(C)CC3)cc2)cc1Nc1nccc(-c2cccnc2)n1 [Imatinib] + O=C(c1cc(Cc2n[nH]c(=O)c3ccccc23)ccc1F)N1CCN(C(=O)C2CC2)CC1 [Olaparib] (partner 8 µM)
Summary of the method: as §1

[3] = compound: Cc1ccc(NC(=O)c2ccc(CN3CCN(C)CC3)cc2)cc1Nc1nccc(-c2cccnc2)n1 [Imatinib] + Nc1nc2[nH]cc(CCc3ccc(C(=O)N[C@@H](CCC(=O)O)C(=O)O)cc3)c2c(=O)[nH]1 [Pemetrexed] (partner 0.2 µM)
Summary of the method: as §1

[4] = compound: Cc1ccc(NC(=O)c2ccc(CN3CCN(C)CC3)cc2)cc1Nc1nccc(-c2cccnc2)n1 [Imatinib]
Summary of the method: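 Viability is treated-well nuclei as a fraction of vehicle-well nuclei, reported as the median across plates. Before counting, lung cancer cell lines were kept overnight at 37 °C in 1536-well plates, pinned with five √10-spaced library-drug doses on vehicle-anchored plates, and left 5 days without medium change, then fixed, permeabilised and Hoechst-stained in one step, imaged at 4× and counted by MetaXpress. A plate passed only if control CV was below 25% and at least one doubling occurred.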

Cell Line | relative viability ([1]; first compound 0.06325 µM) | relative viability ([1]; first compound 0.2 µM) | relative viability ([1]; first compound 0.6325 µM) | relative viability ([1]; first compound 2 µM) | relative viability ([2]; first compound 0.02 µM) | relative viability ([2]; first compound 0.06325 µM) | relative viability ([2]; first compound 0.2 µM) | relative viability ([2]; first compound 0.6325 µM) | relative viability ([2]; first compound 2 µM) | relative viability ([3]; first compound 0.02 µM) | relative viability ([3]; first compound 0.06325 µM) | relative viability ([3]; first compound 0.2 µM) | relative viability ([3]; first compound 0.6325 µM) | relative viability ([3]; first compound 2 µM) | relative viability ([4]; 0.02 µM) | relative viability ([4]; 0.06325 µM) | relative viability ([4]; 0.2 µM) | relative viability ([4]; 0.6325 µM) | relative viability ([4]; 2 µM) | relative viability ([1]; first compound 0.02 µM)
COR-L23 | 1 | 1.01 | 0.984 | 1.01 | 0.394 | 0.367 | 0.363 | 0.383 | 0.308 | 0.196 | 0.206 | 0.209 | 0.196 | 0.159 | 1.08 | 0.916 | 1.14 | 1.02 | 1.1 | 
SK-MES-1 | 0.915 | 1.03 | 0.786 | 0.963 | 0.778 | 0.742 | 0.92 | 0.684 | 0.711 |  | 1.02 | 1.04 | 0.889 | 0.857 |  | 1.05 | 1.21 | 1.01 | 1.04 | 0.957
NCI-H2170 | 1.03 | 0.996 | 1.02 | 1 | 0.635 | 0.585 | 0.663 | 0.69 | 0.578 | 0.343 | 0.277 | 0.267 | 0.256 | 0.274 | 0.987 | 0.955 | 1.05 | 0.961 | 1.01 | 1.01
LCLC-103H | 0.744 | 0.565 | 0.679 | 0.869 | 0.776 | 0.773 | 0.834 | 0.694 |  | 0.458 | 0.445 | 0.472 | 0.464 | 0.504 | 1.02 | 0.806 | 1.12 | 0.964 |  | 
NCI-H1793 |  | 0.919 | 0.682 | 0.715 | 0.92 |  | 1.22 | 0.782 | 0.88 | 0.945 |  | 1 | 1.01 | 0.792 | 0.939 |  | 1.11 | 0.884 | 0.909 | 0.827
NCI-H1975 | 0.986 | 0.879 | 0.954 | 0.871 | 0.756 | 0.815 | 0.947 | 0.803 | 0.712 | 0.308 | 0.299 | 0.299 | 0.309 | 0.284 | 1.04 | 0.951 | 0.94 | 0.964 | 0.94 | 1.09
NCI-H520 | 1.2 | 0.64 | 0.757 | 0.903 | 0.368 | 0.356 | 0.305 | 0.301 | 0.371 | 0.556 | 0.768 | 0.709 | 0.716 | 0.733 | 1.11 | 1.15 | 0.907 | 0.882 | 0.938 | 0.616
NCI-H1915 |  | 1.25 | 1.05 | 1.08 | 0.237 |  | 0.253 | 0.26 | 0.234 | 0.536 |  | 0.516 | 0.461 | 0.572 | 1.09 |  | 1.02 | 1.03 | 0.967 | 1.17
SK-LU-1 | 0.888 | 0.892 | 0.73 | 0.869 | 0.379 | 0.457 | 0.462 |  |  | 1.04 | 1.2 | 1.1 | 1.03 | 1.04 | 1.08 |  | 1.15 |  | 1.11 | 0.978
NCI-H441 | 1.1 | 1.11 | 1.16 | 0.916 | 0.577 | 0.793 | 0.554 | 0.6 | 0.635 | 0.278 | 0.262 | 0.27 | 0.265 | 0.24 | 1.06 | 0.969 | 1.2 | 0.885 |  | 0.72
NCI-H1650 |  | 1.01 | 1.2 | 1.06 | 1 | 0.938 | 0.944 | 0.859 | 0.84 | 0.414 | 0.405 | 0.362 | 0.335 | 0.416 | 0.919 | 0.778 | 1.03 | 0.922 | 0.993 | 0.962
EPLC-272H |  | 0.819 | 0.558 | 0.59 | 0.669 |  |  | 0.795 | 0.732 | 0.261 |  |  | 0.328 | 0.336 | 1.16 |  | 0.884 | 1.07 | 0.87 | 0.938
EMC-BAC-2 | 1.12 | 1.09 | 0.973 | 1.02 | 0.465 | 0.551 | 0.474 | 0.592 | 0.486 | 0.443 | 0.483 | 0.447 | 0.507 | 0.424 | 1.03 | 0.952 | 1.13 | 1.09 | 1.01 | 1.05
ABC-1 |  | 0.904 | 1.13 | 0.922 | 1 |  | 0.732 | 0.785 | 0.581 |  |  |  |  |  | 1.11 |  | 1.07 | 0.888 | 0.634 | 0.739
NCI-H1299 | 1.18 | 1.16 | 1.09 |  | 0.987 | 0.948 | 1.01 | 0.983 | 0.97 |  |  |  |  |  | 1.05 |  | 1.07 | 1.02 | 1.04 | 1.11
NCI-H1563 |  | 0.902 | 0.845 | 0.925 |  |  |  |  |  | 0.861 | 0.678 | 0.787 | 0.772 | 0.631 |  | 0.912 | 1.11 | 0.963 | 0.976 | 0.924
IA-LM | 1.2 | 1.06 | 1.4 | 1.17 | 0.917 | 0.884 | 0.996 | 0.977 | 0.734 |  |  |  |  |  | 1.04 | 1.02 | 0.936 | 1.27 | 0.853 | 1.34
NCI-H1703 | 0.397 | 0.372 | 0.402 | 0.347 | 0.329 | 0.292 | 0.262 | 0.146 | 0.177 |  |  |  |  |  | 0.947 | 0.804 | 0.56 | 0.357 | 0.212 | 0.329
NCI-H1792 |  |  |  |  | 0.477 | 0.481 | 0.225 |  | 0.33 | 1.06 | 0.931 | 0.848 |  | 0.748 | 0.946 | 0.921 | 1.03 | 0.948 | 0.87 | 
